# Target: SARS 3CL^pro (Severe acute respiratory syndrome coronavirus, UniProt P0C6U8)
substance,measurement,value
acetyl-leucyl-alanyl-alanyl-ketomethyl(cycloglutamine)-phthalhydrazide [inhibitor 2],"bonding mode to Cys145, soaking",the episulfide and the deacylating (major) mixed forms

# — article PMC7094781 (Journal of Molecular Biology, 2007)
